From patent US11498899B2, “Nitrone herbicides” (FMC Corporation, priority 2016, dated 2022)

Assays:
[1] = system: ragweed (common ragweed, Ambrosia elatior); assay: Test A postemergence, visual injury rating 0-100; format: in vivo; settings: 0 to 100 scale
[2] = system: foxtail, giant (giant foxtail, Setaria faberii); assay: Test A postemergence, visual injury rating 0-100; format: in vivo; settings: 0 to 100 scale
kochia (Kochia scoparia) [3] = assay: Test A postemergence, visual injury rating 0-100; format: in vivo; settings: 0 to 100 scale
[4] = system: barnyardgrass (Echinochloa crus-galli); assay: Test A postemergence, visual injury rating 0-100; format: in vivo; settings: 0 to 100 scale
[5] = system: blackgrass (Alopecurus myosuroides); assay: Test A postemergence, visual injury rating 0-100; format: in vivo; settings: 0 to 100 scale
[6] = system: ryegrass, Italian (Italian ryegrass, Lolium multiflorum); assay: Test A postemergence, visual injury rating 0-100; format: in vivo; settings: 0 to 100 scale
[7] = system: pigweed (Amaranthus retroflexus); assay: Test A postemergence, visual injury rating 0-100; format: in vivo; settings: 0 to 100 scale
[8] = system: wheat (Triticum aestivum); assay: Test A postemergence, visual injury rating 0-100; format: in vivo; settings: 0 to 100 scale
[9] = system: galium (catchweed bedstraw, Galium aparine); assay: Test A postemergence, visual injury rating 0-100; format: in vivo; settings: 0 to 100 scale
corn (Zea mays) = assay: Test A postemergence, visual injury rating 0-100; format: in vivo; settings: 0 to 100 scale
[10] = system: barnyardgrass (Echinochloa crus-galli); assay: Test A preemergence, visual injury rating 0-100 (0 no effect, 100 complete control); format: in vivo
[11] = system: barnyardgrass (Echinochloa crus-galli); assay: Test B flooded paddy test, visual rating 0-100; settings: Flood, 250 g ai/ha, applied to paddy water, rated after 13 to 15 days
[12] = system: ragweed (common ragweed, Ambrosia elatior); assay: Test A preemergence, visual injury rating 0-100; format: in vivo
[13] = system: foxtail, giant (giant foxtail, Setaria faberii); assay: Test A preemergence, visual injury rating 0-100; format: in vivo
kochia (Kochia scoparia) [14] = assay: Test A preemergence, visual injury rating 0-100; format: in vivo
[15] = system: ryegrass, Italian (Italian ryegrass, Lolium multiflorum); assay: Test A preemergence, visual injury rating 0-100; format: in vivo; settings: 500 g ai/ha
[16] = system: pigweed (Amaranthus retroflexus); assay: Test A preemergence, visual injury rating 0-100; format: in vivo
rice (Oryza sativa) = assay: Test B flooded paddy test, visual rating 0-100 (0 no effect, 100 complete control); settings: Flood, 250 g ai/ha, applied to paddy water, rated after 13 to 15 days
[17] = system: ducksalad (Heteranthera limosa); assay: Test B flooded paddy test, visual rating 0-100; settings: Flood, 250 g ai/ha, applied to paddy water, rated after 13 to 15 days

Compound	Ragweed plant response rating ([1]; 125 g ai/ha)	Ragweed plant response rating ([1]; 500 g ai/ha)	Foxtail, Giant plant response rating ([2]; 125 g ai/ha)	Foxtail, Giant plant response rating ([2]; 500 g ai/ha)	Kochia plant response rating (kochia (Kochia scoparia) [3]; 125 g ai/ha)	Kochia plant response rating (kochia (Kochia scoparia) [3]; 500 g ai/ha)	Barnyardgrass plant response rating ([4]; 125 g ai/ha)	Barnyardgrass plant response rating ([4]; 500 g ai/ha)	Blackgrass plant response rating ([5]; 125 g ai/ha)	Blackgrass plant response rating ([5]; 500 g ai/ha)	Ryegrass, Italian plant response rating ([6]; 125 g ai/ha)	Ryegrass, Italian plant response rating ([6]; 500 g ai/ha)	Pigweed plant response rating ([7]; 125 g ai/ha)	Pigweed plant response rating ([7]; 500 g ai/ha)	Wheat plant response rating ([8]; 125 g ai/ha)	Wheat plant response rating ([8]; 500 g ai/ha)	Galium plant response rating ([9]; 125 g ai/ha)	Galium plant response rating ([9]; 500 g ai/ha)	Corn plant response rating (corn (Zea mays); 125 g ai/ha)	Corn plant response rating (corn (Zea mays); 500 g ai/ha)	further results
CC1=[N+]([O-])C(C(=O)Nc2cccc(F)c2F)C(c2cc(C)c(F)c(C)c2)C1 (racemic) [Compound 111]	30	70	40	90	0	0	70	90	80	80	40	80	0	20	50	70	50	70	70	90	Barnyardgrass plant response rating (0 to 100 scale) ([10]; 125 g ai/ha): 90; Barnyardgrass plant response rating (0 to 100 scale) ([10]; 500 g ai/ha): 90; Barnyardgrass plant response rating (0 to 100 scale) [11]: 0; Ragweed plant response rating (0 to 100 scale) ([12]; 125 g ai/ha): 0; Ragweed plant response rating (0 to 100 scale) ([12]; 500 g ai/ha): 90; Foxtail, Giant plant response rating (0 to 100 scale) ([13]; 125 g ai/ha): 90; Foxtail, Giant plant response rating (0 to 100 scale) ([13]; 500 g ai/ha): 90; Kochia plant response rating (0 to 100 scale) (kochia (Kochia scoparia) [14]; 125 g ai/ha): 0; Kochia plant response rating (0 to 100 scale) (kochia (Kochia scoparia) [14]; 500 g ai/ha): 90; Ryegrass, Italian plant response rating (0 to 100 scale) [15]: 90; Pigweed plant response rating (0 to 100 scale) ([16]; 125 g ai/ha): 20; Pigweed plant response rating (0 to 100 scale) ([16]; 500 g ai/ha): 60; Rice plant response rating (0 to 100 scale) (rice (Oryza sativa)): 0; Ducksalad plant response rating (0 to 100 scale) [17]: 0
CC1=[N+]([O-])C(C(=O)Nc2cccc(F)c2F)C(c2cc(C)cc(C)c2)C1 (racemic) [Compound 112]	0	60	90	90	0	20	70	90	80	80	40	90	0	0	40	70	50	70	80	90	Barnyardgrass plant response rating (0 to 100 scale) ([10]; 125 g ai/ha): 90; Barnyardgrass plant response rating (0 to 100 scale) ([10]; 500 g ai/ha): 100; Barnyardgrass plant response rating (0 to 100 scale) [11]: 70; Ragweed plant response rating (0 to 100 scale) ([12]; 125 g ai/ha): 40; Ragweed plant response rating (0 to 100 scale) ([12]; 500 g ai/ha): 80; Foxtail, Giant plant response rating (0 to 100 scale) ([13]; 125 g ai/ha): 90; Foxtail, Giant plant response rating (0 to 100 scale) ([13]; 500 g ai/ha): 100; Kochia plant response rating (0 to 100 scale) (kochia (Kochia scoparia) [14]; 125 g ai/ha): 50; Kochia plant response rating (0 to 100 scale) (kochia (Kochia scoparia) [14]; 500 g ai/ha): 90; Ryegrass, Italian plant response rating (0 to 100 scale) [15]: 100; Pigweed plant response rating (0 to 100 scale) ([16]; 125 g ai/ha): 0; Pigweed plant response rating (0 to 100 scale) ([16]; 500 g ai/ha): 70; Rice plant response rating (0 to 100 scale) (rice (Oryza sativa)): 0; Ducksalad plant response rating (0 to 100 scale) [17]: 45
CC1=[N+]([O-])C(C(=O)Nc2cccc(F)c2F)C(c2ccc(OC(F)(F)F)c(F)c2)C1 (racemic) [Compound 113]	50	50	80	90	0	40	30	80	40	80	0	50	0	20	0	50	50	70	20	80	Barnyardgrass plant response rating (0 to 100 scale) ([10]; 125 g ai/ha): 90; Barnyardgrass plant response rating (0 to 100 scale) ([10]; 500 g ai/ha): 90; Barnyardgrass plant response rating (0 to 100 scale) [11]: 0; Ragweed plant response rating (0 to 100 scale) ([12]; 125 g ai/ha): 0; Ragweed plant response rating (0 to 100 scale) ([12]; 500 g ai/ha): 70; Foxtail, Giant plant response rating (0 to 100 scale) ([13]; 125 g ai/ha): 90; Foxtail, Giant plant response rating (0 to 100 scale) ([13]; 500 g ai/ha): 90; Kochia plant response rating (0 to 100 scale) (kochia (Kochia scoparia) [14]; 125 g ai/ha): 10; Kochia plant response rating (0 to 100 scale) (kochia (Kochia scoparia) [14]; 500 g ai/ha): 90; Ryegrass, Italian plant response rating (0 to 100 scale) [15]: 80; Pigweed plant response rating (0 to 100 scale) ([16]; 125 g ai/ha): 30; Pigweed plant response rating (0 to 100 scale) ([16]; 500 g ai/ha): 60; Rice plant response rating (0 to 100 scale) (rice (Oryza sativa)): 0; Ducksalad plant response rating (0 to 100 scale) [17]: 0
CC1=[N+]([O-])C(C(=O)Nc2cccc(F)c2F)C(c2cc(F)c(C(F)(F)F)c(F)c2)C1 (racemic) [Compound 114]	30	70	80	90	20	70	70	90	80	80	60	70	0	70	40	60	70	70	40	80	Barnyardgrass plant response rating (0 to 100 scale) ([10]; 125 g ai/ha): 90; Barnyardgrass plant response rating (0 to 100 scale) ([10]; 500 g ai/ha): 90; Barnyardgrass plant response rating (0 to 100 scale) [11]: 40; Ragweed plant response rating (0 to 100 scale) ([12]; 125 g ai/ha): 80; Ragweed plant response rating (0 to 100 scale) ([12]; 500 g ai/ha): 90; Foxtail, Giant plant response rating (0 to 100 scale) ([13]; 125 g ai/ha): 90; Foxtail, Giant plant response rating (0 to 100 scale) ([13]; 500 g ai/ha): 90; Kochia plant response rating (0 to 100 scale) (kochia (Kochia scoparia) [14]; 125 g ai/ha): 20; Kochia plant response rating (0 to 100 scale) (kochia (Kochia scoparia) [14]; 500 g ai/ha): 80; Ryegrass, Italian plant response rating (0 to 100 scale) [15]: 90; Pigweed plant response rating (0 to 100 scale) ([16]; 125 g ai/ha): 50; Pigweed plant response rating (0 to 100 scale) ([16]; 500 g ai/ha): 80; Rice plant response rating (0 to 100 scale) (rice (Oryza sativa)): 30; Ducksalad plant response rating (0 to 100 scale) [17]: 60
CC1=[N+]([O-])C(C(=O)Nc2cccc(F)c2F)C(c2cccc(Oc3ncc(Cl)cn3)c2)C1 (racemic) [Compound 115]	0	20	0	70	0	20	0	60	40	80	0	60	0	20	10	50	40	70	0	60	Barnyardgrass plant response rating (0 to 100 scale) ([10]; 125 g ai/ha): 90; Barnyardgrass plant response rating (0 to 100 scale) ([10]; 500 g ai/ha): 90; Barnyardgrass plant response rating (0 to 100 scale) [11]: 0; Ragweed plant response rating (0 to 100 scale) ([12]; 125 g ai/ha): 0; Ragweed plant response rating (0 to 100 scale) ([12]; 500 g ai/ha): 20; Foxtail, Giant plant response rating (0 to 100 scale) ([13]; 125 g ai/ha): 20; Foxtail, Giant plant response rating (0 to 100 scale) ([13]; 500 g ai/ha): 90; Kochia plant response rating (0 to 100 scale) (kochia (Kochia scoparia) [14]; 125 g ai/ha): 0; Kochia plant response rating (0 to 100 scale) (kochia (Kochia scoparia) [14]; 500 g ai/ha): 30; Ryegrass, Italian plant response rating (0 to 100 scale) [15]: 80; Pigweed plant response rating (0 to 100 scale) ([16]; 125 g ai/ha): 0; Pigweed plant response rating (0 to 100 scale) ([16]; 500 g ai/ha): 0; Rice plant response rating (0 to 100 scale) (rice (Oryza sativa)): 0; Ducksalad plant response rating (0 to 100 scale) [17]: 0
